# Data published in PubChem BioAssay AID248 (DTP/NCI, 2004).
# Inconclusive results and toxic doses are left out.
# Tested on: L1210 leukemia ip in BDF1 mice, survival T/C
# Assay: NCI In Vivo Anticancer Drug Screen. Data for tumor model L1210 Leukemia (intraperitoneal) in B6D2F1 (BDF1) mice
# Conditions: endpoint: mean survival time, higher = longer survival
# In short: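 Survival endpoint. Drug-treated group vs vehicle group, expressed as T divided by C. Tumor passaged by transplantation.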
# [1] = dose: 100.0 mg/kg/injection, schedule: Q01DX009 (ip), vehicle: saline with Tween-80
# [2] = dose: 100.0 mg/kg/injection, schedule: Q04DX002 (ip), vehicle: Klucel (hydroxypropylcellulose) (HPC)
# [3] = dose: 200.0 mg/kg/injection, schedule: Q04DX002 (ip), vehicle: Klucel (hydroxypropylcellulose) (HPC)
# [4] = dose: 400.0 mg/kg/injection, schedule: Q04DX002 (ip), vehicle: Klucel (hydroxypropylcellulose) (HPC)
# [5] = dose: 100.0 mg/kg/injection, schedule: Q04DX003 (ip), vehicle: saline with Tween-80
# [6] = dose: 200.0 mg/kg/injection, schedule: Q04DX003 (ip), vehicle: saline with Tween-80
# [7] = dose: 50.0 mg/kg/injection, schedule: Q01DX001 (ip), vehicle: carboxymethylcellulose (CMC)
# [8] = dose: 50.0 mg/kg/injection, schedule: Q04DX003 (ip), vehicle: Klucel (hydroxypropylcellulose) (HPC)
# [9] = dose: 100.0 mg/kg/injection, schedule: Q04DX003 (ip), vehicle: Klucel (hydroxypropylcellulose) (HPC)
# [10] = dose: 200.0 mg/kg/injection, schedule: Q04DX003 (ip), vehicle: Klucel (hydroxypropylcellulose) (HPC)
# [11] = dose: 100.0 mg/kg/injection, schedule: Q01DX009 (ip), vehicle: saline
# [12] = dose: 200.0 mg/kg/injection, schedule: Q01DX009 (ip), vehicle: saline
# [13] = dose: 100.0 mg/kg/injection, schedule: Q01DX009 (ip), vehicle: Klucel (hydroxypropylcellulose) (HPC)
# [14] = dose: 200.0 mg/kg/injection, schedule: Q01DX009 (ip), vehicle: Klucel (hydroxypropylcellulose) (HPC)
# [15] = dose: 400.0 mg/kg/injection, schedule: Q01DX009 (ip), vehicle: Klucel (hydroxypropylcellulose) (HPC)
smiles,measurement,setting,value
c1ccc(Pc2ccccc2)cc1,T/C,"dose: 100.0 mg/kg/injection, schedule: Q01DX001 (ip), vehicle: saline with Tween-80",103 % of control
same,T/C,[1],93 % of control
same,T/C,"dose: 200.0 mg/kg/injection, schedule: Q01DX001 (ip), vehicle: saline with Tween-80",105 % of control
same,T/C,"dose: 200.0 mg/kg/injection, schedule: Q01DX009 (ip), vehicle: saline with Tween-80",98 % of control
same,T/C,"dose: 400.0 mg/kg/injection, schedule: Q01DX001 (ip), vehicle: saline with Tween-80",104 % of control
COc1ccc2cc1Oc1ccc(cc1)CC1c3c(cc(OC)c4c3Oc3cc5c(cc3O4)CCNC5C2)CCN1C (stereo unspecified),T/C,[2],98 % of control
same,T/C,[3],98 % of control
same,T/C,[4],91 % of control
COc1cc(NS(C)(=O)=O)ccc1Nc1c2ccc(Cl)cc2nc2c(OC)cccc12,T/C,"dose: 6.25 mg/kg/injection, schedule: Q01DX009 (ip), vehicle: water",155 % of control
same,T/C,"dose: 12.5 mg/kg/injection, schedule: Q01DX009 (ip), vehicle: water",98 % of control
same,T/C,"dose: 13.0 mg/kg/injection, schedule: Q04DX003 (ip), vehicle: saline with Tween-80",155 % of control
same,T/C,"dose: 20.0 mg/kg/injection, schedule: Q04DX003 (ip), vehicle: saline with Tween-80",247 % of control
same,T/C,"dose: 29.0 mg/kg/injection, schedule: Q04DX003 (ip), vehicle: saline with Tween-80",253 % of control
same,T/C,"dose: 30.0 mg/kg/injection, schedule: Q04DX003 (ip), vehicle: saline with Tween-80",296 % of control
same,T/C,"dose: 44.0 mg/kg/injection, schedule: Q04DX003 (ip), vehicle: saline with Tween-80",260 % of control
same,T/C,"dose: 66.0 mg/kg/injection, schedule: Q04DX003 (ip), vehicle: saline with Tween-80",153 % of control
same,T/C,[5],89 % of control
O=C(O)c1cc(C(=O)O)cc([N+](=O)[O-])c1,T/C,"dose: 50.0 mg/kg/injection, schedule: Q01DX009 (ip), vehicle: saline with Tween-80",93 % of control
same,T/C,[1],91 % of control
same,T/C,[5],95 % of control
same,T/C,[6],95 % of control
C=CC(CO)N1CC1 (stereo unspecified),T/C,"dose: 25.0 mg/kg/injection, schedule: Q01DX001 (ip), vehicle: carboxymethylcellulose (CMC)",101 % of control
same,T/C,[7],103 % of control
CN(C)c1ccc(-c2nc3ccccc3s2)cc1,T/C,[8],105 % of control
same,T/C,[9],100 % of control
same,T/C,[10],96 % of control
O=C(O)c1ccc2c(c1Nc1ccccc1)C(=O)c1ccccc1C2=O,T/C,[11],106 % of control
same,T/C,[12],94 % of control
same,T/C,"dose: 400.0 mg/kg/injection, schedule: Q01DX009 (ip), vehicle: saline",94 % of control
CC(Oc1ccccc1)C(=O)Nc1ccc(F)cc1 (stereo unspecified),T/C,[2],94 % of control
same,T/C,[3],97 % of control
same,T/C,[4],97 % of control
C[C@]12CC[C@@H]3c4ccc(O)c([N+](=O)[O-])c4CC[C@H]3[C@@H]1CCC2=O,T/C,[13],97 % of control
same,T/C,[14],92 % of control
CCOC(=O)C1CCCCCC1=O (stereo unspecified),T/C,"dose: 50.0 mg/kg/injection, schedule: Q01DX009 (ip), vehicle: saline",110 % of control
same,T/C,[11],98 % of control
same,T/C,"dose: 100.0 mg/kg/injection, schedule: Q04DX003 (ip), vehicle: alcohol",102 % of control
same,T/C,[12],95 % of control
same,T/C,"dose: 200.0 mg/kg/injection, schedule: Q04DX003 (ip), vehicle: alcohol",103 % of control
same,T/C,"dose: 400.0 mg/kg/injection, schedule: Q04DX003 (ip), vehicle: alcohol",100 % of control
Nc1cccc[n+]1CC1(c2ccccc2)OCCO1,T/C,"dose: 50.0 mg/kg/injection, schedule: Q01DX001 (ip), vehicle: Klucel (hydroxypropylcellulose) (HPC)",110 % of control
same,T/C,"dose: 100.0 mg/kg/injection, schedule: Q01DX001 (ip), vehicle: Klucel (hydroxypropylcellulose) (HPC)",106 % of control
O=C(Nc1cccc(Cl)c1Cl)Oc1cccc2ccccc12,T/C,[2],101 % of control
same,T/C,[3],108 % of control
same,T/C,[4],114 % of control
OCC12COC(c3ccccc3)N1C(c1ccccc1)OC2 (stereo unspecified),T/C,[13],102 % of control
same,T/C,[9],102 % of control
same,T/C,[14],102 % of control
same,T/C,[10],102 % of control
same,T/C,[15],97 % of control
same,T/C,"dose: 400.0 mg/kg/injection, schedule: Q04DX003 (ip), vehicle: Klucel (hydroxypropylcellulose) (HPC)",100 % of control
O=C1C=CC(=NCC(=O)OCc2ccccc2)O1,T/C,"dose: 200.0 mg/kg/injection, schedule: Q04DX003 (ip), vehicle: acetone",91 % of control
same,T/C,"dose: 400.0 mg/kg/injection, schedule: Q04DX003 (ip), vehicle: acetone",90 % of control
CCN(CC)CCN(C)C(=O)C(c1ccccc1)c1ccccc1,T/C,"dose: 100.0 mg/kg/injection, schedule: Q04DX003 (ip), vehicle: saline",98 % of control
same,T/C,"dose: 200.0 mg/kg/injection, schedule: Q04DX003 (ip), vehicle: saline",93 % of control
CSc1ncc(C(N)=O)c(N=C(C)C)n1,T/C,"dose: 12.5 mg/kg/injection, schedule: Q04DX003 (ip), vehicle: Klucel (hydroxypropylcellulose) (HPC)",96 % of control
same,T/C,"dose: 25.0 mg/kg/injection, schedule: Q04DX003 (ip), vehicle: Klucel (hydroxypropylcellulose) (HPC)",96 % of control
same,T/C,[8],94 % of control
same,T/C,[9],97 % of control
CCCCOP(=O)(/C=C/c1ccccc1)OCCCC,T/C,"dose: 100.0 mg/kg/injection, schedule: Q04DX002 (ip), vehicle: saline with Tween-80",122 % of control
same,T/C,"dose: 200.0 mg/kg/injection, schedule: Q04DX002 (ip), vehicle: saline with Tween-80",91 % of control
O=c1[nH]nnc2[nH]ncc12,T/C,[5],102 % of control
same,T/C,[6],104 % of control
same,T/C,"dose: 400.0 mg/kg/injection, schedule: Q04DX003 (ip), vehicle: saline with Tween-80",98 % of control
O=C(CCC(=O)c1ccc(Br)cc1)c1ccc(Br)cc1,T/C,[7],92 % of control
same,T/C,"dose: 100.0 mg/kg/injection, schedule: Q01DX001 (ip), vehicle: carboxymethylcellulose (CMC)",97 % of control
same,T/C,"dose: 200.0 mg/kg/injection, schedule: Q01DX001 (ip), vehicle: carboxymethylcellulose (CMC)",103 % of control
same,T/C,"dose: 400.0 mg/kg/injection, schedule: Q01DX001 (ip), vehicle: carboxymethylcellulose (CMC)",90 % of control
O=C(O)c1ccccc1C(=O)c1ccc(Cl)cc1,T/C,[13],100 % of control
same,T/C,[14],86 % of control
same,T/C,[15],100 % of control
